Measurements from patent publication US20230365592A1 (Agios Pharmaceuticals, Inc., priority 2022, published 2023).

The molecules below were run against T1, human PAH with the R408W mutation (Homo sapiens, UniProt P00439, R408W) (assay: Cell Based Phenylalanine Flux Assay). Details: A375 cells expressing human R408W PAH; 24 hrs compound incubation; 13C-Tyrosine by LC-MS; average where tested multiple times; read-out: AC50.
T1 construct: expressed in transfected cells
T1 sequence (P00439 1-452 R408W): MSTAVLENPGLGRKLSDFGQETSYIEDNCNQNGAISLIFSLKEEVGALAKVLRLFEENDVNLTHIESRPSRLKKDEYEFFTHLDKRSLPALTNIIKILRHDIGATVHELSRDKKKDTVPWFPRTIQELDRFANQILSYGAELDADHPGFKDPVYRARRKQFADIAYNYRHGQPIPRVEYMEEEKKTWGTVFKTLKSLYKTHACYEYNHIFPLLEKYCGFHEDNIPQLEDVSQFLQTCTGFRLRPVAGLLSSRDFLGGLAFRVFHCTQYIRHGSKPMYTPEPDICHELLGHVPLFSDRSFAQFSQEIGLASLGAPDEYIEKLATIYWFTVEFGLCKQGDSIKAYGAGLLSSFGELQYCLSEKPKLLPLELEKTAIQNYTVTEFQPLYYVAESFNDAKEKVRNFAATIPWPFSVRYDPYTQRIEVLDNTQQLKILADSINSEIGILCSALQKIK
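Also: after compound treatment, cells received sepiapterin plus isotope-labelled Phenylalanine for 4 hours, then labelled Tyrosine in the medium was quantified, 10-point 2-fold dilution series run in duplicate.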

Row | Compound | AC50
1 | Cc1cccn2nc([C@@H]3c4nc[nH]c4CCN3c3ncccn3)cc12 [Example 1618, (S)-4-(4-methylpyrazolo[1,5-a]pyridin-2-yl)-5-(pyrimidin-2-yl)-4,5,6,7-tetrahydro-1H-imidazo[4,5-c]pyridine] | < 0.5 µM
2 | Cc1cccn2nc([C@H]3c4nc[nH]c4CCN3c3ncccn3)cc12 [Example 1619, (R)-4-(4-methylpyrazolo[1,5-a]pyridin-2-yl)-5-(pyrimidin-2-yl)-4,5,6,7-tetrahydro-1H-imidazo[4,5-c]pyridine] | 1 to 5 µM
3 | Cc1cccn2nc([C@H]3c4nc[nH]c4CCN3C(=O)c3cnn4cc(-c5ccn(C)n5)ccc34)cc12 [Example 1620, (R)-(6-(1-methyl-1H-pyrazol-3-yl)pyrazolo[1,5-a]pyridin-3-yl)(4-(4-methylpyrazolo[1,5-a]pyridin-2-yl)-6,7-dihydro-1H-imidazo[4,5-c]pyridin-5(4H)-yl)methanone] | > 5 µM
4 | Cc1cccn2nc([C@@H]3c4nc[nH]c4CCN3C(=O)c3cnn4cc(-c5ccn(C)n5)ccc34)cc12 [Example 1621, (S)-(6-(1-methyl-1H-pyrazol-3-yl)pyrazolo[1,5-a]pyridin-3-yl)(4-(4-methylpyrazolo[1,5-a]pyridin-2-yl)-6,7-dihydro-1H-imidazo[4,5-c]pyridin-5(4H)-yl)methanone] | < 0.5 µM
5 | Clc1cccn2nc([C@@H]3c4nc[nH]c4CCN3c3nnc(-c4ccccn4)o3)cc12 [Example 1623, (S)-2-(4-(4-chloropyrazolo[1,5-a]pyridin-2-yl)-6,7-dihydro-1H-imidazo[4,5-c]pyridin-5(4H)-yl)-5-(pyridin-2-yl)-1,3,4-oxadiazole] | < 0.5 µM
6 | FC(F)c1cccc2cc([C@@H]3c4nc[nH]c4CCN3c3nnc(-c4ccccn4)o3)nn12 [Example 1626, (S)-2-(4-(7-(difluoromethyl)pyrazolo[1,5-a]pyridin-2-yl)-6,7-dihydro-1H-imidazo[4,5-c]pyridin-5(4H)-yl)-5-(pyridin-2-yl)-1,3,4-oxadiazole] | 0.5 to 1 µM
7 | Cc1cccn2nc([C@@H]3c4nc[nH]c4CCN3C(=O)c3cnn4cc(-c5cnn(C)c5)ccc34)cc12 [Example 1630, (S)-(6-(1-methyl-1H-pyrazol-4-yl)pyrazolo[1,5-a]pyridin-3-yl)(4-(4-methylpyrazolo[1,5-a]pyridin-2-yl)-6,7-dihydro-1H-imidazo[4,5-c]pyridin-5(4H)-yl)methanone] | 0.5 to 1 µM
8 | Cn1ccc(-c2ccc3c(C(=O)N4CCc5[nH]cnc5[C@H]4c4cc5cccc(C(F)(F)F)n5n4)cnn3c2)n1 [Example 1632, (S)-(6-(1-methyl-1H-pyrazol-3-yl)pyrazolo[1,5-a]pyridin-3-yl)(4-(7-(trifluoromethyl)pyrazolo[1,5-a]pyridin-2-yl)-6,7-dihydro-1H-imidazo[4,5-c]pyridin-5(4H)-yl)methanone] | 0.5 to 1 µM
9 | CN(C)Cc1ccc2c(C(=O)N3CCc4[nH]cnc4[C@H]3c3cc4c(Cl)cccn4n3)cnn2c1 [Example 1634, (S)-(4-(4-chloropyrazolo[1,5-a]pyridin-2-yl)-6,7-dihydro-1H-imidazo[4,5-c]pyridin-5(4H)-yl)(6-((dimethylamino)methyl)pyrazolo[1,5-a]pyridin-3-yl)methanone] | 0.5 to 1 µM
10 | Cc1cccn2nc([C@@H]3c4nc[nH]c4CCN3c3nnc(-c4ccccn4)o3)cc12 [Example 1637, (S)-2-(4-(4-methylpyrazolo[1,5-a]pyridin-2-yl)-6,7-dihydro-1H-imidazo[4,5-c]pyridin-5(4H)-yl)-5-(pyridin-2-yl)-1,3,4-oxadiazole] | < 0.5 µM
11 | Cc1cccc2cc([C@@H]3c4nc[nH]c4CCN3c3nnc(-c4ccccn4)o3)nn12 [Example 1640, (S)-2-(4-(7-methylpyrazolo[1,5-a]pyridin-2-yl)-6,7-dihydro-1H-imidazo[4,5-c]pyridin-5(4H)-yl)-5-(pyridin-2-yl)-1,3,4-oxadiazole] | 0.5 to 1 µM
12 | Cc1cccn2nc([C@H]3c4nc[nH]c4CCN3c3nc4ccccc4o3)cc12 [Example 1642, (R)-2-(4-(4-methylpyrazolo[1,5-a]pyridin-2-yl)-6,7-dihydro-1H-imidazo[4,5-c]pyridin-5(4H)-yl)benzo[d]oxazole] | > 5 µM
13 | Cc1cccn2nc([C@@H]3c4nc[nH]c4CCN3c3nc4ccccc4o3)cc12 [Example 1643, (S)-2-(4-(4-methylpyrazolo[1,5-a]pyridin-2-yl)-6,7-dihydro-1H-imidazo[4,5-c]pyridin-5(4H)-yl)benzo[d]oxazole] | 0.5 to 1 µM
14 | O=C(c1cnn2cc(-c3ccccn3)ccc12)N1CCc2[nH]cnc2[C@H]1c1cc2c(F)cccn2n1 [Example 1644, (S)-(4-(4-fluoropyrazolo[1,5-a]pyridin-2-yl)-6,7-dihydro-1H-imidazo[4,5-c]pyridin-5(4H)-yl)(6-(pyridin-2-yl)pyrazolo[1,5-a]pyridin-3-yl)methanone] | < 0.5 µM
15 | O=C(c1cnn2cc(-c3ccccn3)ccc12)N1CCc2[nH]cnc2[C@@H]1c1cc2c(F)cccn2n1 [Example 1645, (R)-(4-(4-fluoropyrazolo[1,5-a]pyridin-2-yl)-6,7-dihydro-1H-imidazo[4,5-c]pyridin-5(4H)-yl)(6-(pyridin-2-yl)pyrazolo[1,5-a]pyridin-3-yl)methanone] | > 5 µM
16 | Cn1ccc(-c2ccc3c(C(=O)N4CCc5[nH]cnc5[C@H]4c4cc5c(F)cccn5n4)cnn3c2)n1 [Example 1646, (S)-(4-(4-fluoropyrazolo[1,5-a]pyridin-2-yl)-6,7-dihydro-1H-imidazo[4,5-c]pyridin-5(4H)-yl)(6-(1-methyl-1H-pyrazol-3-yl)pyrazolo[1,5-a]pyridin-3-yl)methanone] | 0.5 to 1 µM
17 | Cn1ccc(-c2ccc3c(C(=O)N4CCc5[nH]cnc5[C@@H]4c4cc5c(F)cccn5n4)cnn3c2)n1 [Example 1647, (R)-(4-(4-fluoropyrazolo[1,5-a]pyridin-2-yl)-6,7-dihydro-1H-imidazo[4,5-c]pyridin-5(4H)-yl)(6-(1-methyl-1H-pyrazol-3-yl)pyrazolo[1,5-a]pyridin-3-yl)methanone] | > 5 µM
18 | Cc1cccn2nc([C@@H]3c4nc[nH]c4CCN3C(=O)c3cnn4cc(-c5ccccn5)ccc34)cc12 [Example 1648, (S)-(4-(4-methylpyrazolo[1,5-a]pyridin-2-yl)-6,7-dihydro-1H-imidazo[4,5-c]pyridin-5(4H)-yl)(6-(pyridin-2-yl)pyrazolo[1,5-a]pyridin-3-yl)methanone] | 0.5 to 1 µM
19 | Cc1cccn2nc([C@H]3c4nc[nH]c4CCN3C(=O)c3cnn4cc(-c5ccccn5)ccc34)cc12 [Example 1649, (R)-(4-(4-methylpyrazolo[1,5-a]pyridin-2-yl)-6,7-dihydro-1H-imidazo[4,5-c]pyridin-5(4H)-yl)(6-(pyridin-2-yl)pyrazolo[1,5-a]pyridin-3-yl)methanone] | > 5 µM
20 | COc1cccn2nc([C@@H]3c4nc[nH]c4CCN3C(=O)c3nnc(-c4ccn(C(F)(F)F)n4)o3)cc12 [Example 1652, (S)-(4-(4-methoxypyrazolo[1,5-a]pyridin-2-yl)-6,7-dihydro-1H-imidazo[4,5-c]pyridin-5(4H)-yl)(5-(1-(trifluoromethyl)-1H-pyrazol-3-yl)-1,3,4-oxadiazol-2-yl)methanone] | 0.5 to 1 µM
21 | COc1cccn2nc([C@H]3c4nc[nH]c4CCN3C(=O)c3nnc(-c4ccn(C(F)(F)F)n4)o3)cc12 [Example 1653, (R)-(4-(4-methoxypyrazolo[1,5-a]pyridin-2-yl)-6,7-dihydro-1H-imidazo[4,5-c]pyridin-5(4H)-yl)(5-(1-(trifluoromethyl)-1H-pyrazol-3-yl)-1,3,4-oxadiazol-2-yl)methanone] | > 5 µM
22 | O=C(c1nnc(C2CC2)o1)N1CCc2[nH]cnc2[C@H]1c1cc2c(OC(F)F)cccn2n1 [Example 1654, (S)-(5-cyclopropyl-1,3,4-oxadiazol-2-yl)(4-(4-(difluoromethoxy)pyrazolo[1,5-a]pyridin-2-yl)-6,7-dihydro-1H-imidazo[4,5-c]pyridin-5(4H)-yl)methanone] | 0.5 to 1 µM
23 | O=C(c1nnc(-c2ncccc2F)o1)N1CCc2[nH]cnc2[C@@H]1c1cc2c(OC(F)F)cccn2n1 [Example 1656, (R)-(4-(4-(difluoromethoxy)pyrazolo[1,5-a]pyridin-2-yl)-6,7-dihydro-1H-imidazo[4,5-c]pyridin-5(4H)-yl)(5-(3-fluoropyridin-2-yl)-1,3,4-oxadiazol-2-yl)methanone] | > 5 µM
24 | O=C(c1nnc(-c2ncccc2F)o1)N1CCc2[nH]cnc2[C@H]1c1cc2c(OC(F)F)cccn2n1 [Example 1657, (S)-(4-(4-(difluoromethoxy)pyrazolo[1,5-a]pyridin-2-yl)-6,7-dihydro-1H-imidazo[4,5-c]pyridin-5(4H)-yl)(5-(3-fluoropyridin-2-yl)-1,3,4-oxadiazol-2-yl)methanone] | 0.5 to 1 µM
25 | Cc1c(-c2nnc(C(=O)N3CCc4[nH]cnc4[C@H]3c3cc4c(OC(F)F)cccn4n3)o2)cnn1C [Example 1658, (S)-(4-(4-(difluoromethoxy)pyrazolo[1,5-a]pyridin-2-yl)-6,7-dihydro-1H-imidazo[4,5-c]pyridin-5(4H)-yl)(5-(1,5-dimethyl-1H-pyrazol-4-yl)-1,3,4-oxadiazol-2-yl)methanone] | 0.5 to 1 µM
26 | O=C(c1nnc(-c2cnn(C(F)F)c2)o1)N1CCc2[nH]cnc2[C@H]1c1cc2c(OC(F)F)cccn2n1 [Example 1660, (S)-(4-(4-(difluoromethoxy)pyrazolo[1,5-a]pyridin-2-yl)-6,7-dihydro-1H-imidazo[4,5-c]pyridin-5(4H)-yl)(5-(1-(difluoromethyl)-1H-pyrazol-4-yl)-1,3,4-oxadiazol-2-yl)methanone] | 0.5 to 1 µM
